From PMC9311596, “Main Bioactive Components and Their Biological Activities from Natural and Processed Rhizomes of Polygonum sibiricum” (Antioxidants, 2022) come the findings set out here.

Entries after “also recorded” stand apart in the source; their conditions may differ. Like-named read-outs stand apart in the source and are kept apart here.

Assay [1] is described as follows: DPPH radical scavenging assay. To be noted: for EC50: isolated components, read-out: SC50 DPPH. The procedure: (§1) This assay was determined using the procedure previously reported.
Assay [2] in a line: ABTS radical scavenging assay. Particulars: for EC50: isolated components, read-out: SC50 ABTS. The procedure: as §1
The nature of assay [3]: Superoxide radical scavenging assay. Particulars: isolated components; read-out: SC50 Superoxide. The procedure: This assay was determined using the method previously reported.
Assay [4] is described as follows: Ferric reducing antioxidant power (FRAP) assay. Particulars: for FRAP (TE): isolated components, mM Trolox equivalents per gram. The procedure: The FRAP assay was determined using the method previously reported.
Assay [5] concerns the target T1, acetylcholinesterase (AChE) (Electrophorus electricus, UniProt O42275).
T1 construct: purchased Sigma-Aldrich
Put plainly: biochemical. The protocol:
The AChE inhibitory assay was performed according to the previous method, with slight modifications. First, 1 mL of DTNB (15 mM) solution, 1 mL of AChI (15 mM) solution, 1 mL of AChE (0.2 U/mL), and various concentrations of PS (50–400 μg/mL) were prepared using sodium phosphate buffer (0.1 M, pH 8.0). The reaction was started by adding 140 μL PBS, 10 μL DTNB solution, 15 μL AChE solution and 20 μL sample. The reaction mixture was incubated at 20 °C in the dark for 10 min, and 10 μL of AChI solution was added. Finally, the reaction mixture was incubated at 20 °C for 10 min, and the absorbance was measured at 405 nm.

In assay [6] the test system is LPS-induced NO production in RAW264.7 macrophages. The assay is described as follows: Nitric oxide inhibitory assay. Type of assay: cell-based, Murine. Particulars: Mus musculus. The protocol: Murine RAW264.7 macrophages were cultured in DMEM medium containing 10% fetal bovine serum (FBS) and 1% penicillin at 37 °C, 5% CO2 [37].
The NO inhibitory assay was performed based on the reference method.

In assay [7] the test system is iNOS. The assay is described as follows: Western blot analysis of iNOS. Type of assay: cell-based, Murine. Particulars: 12.5, 25, and 50 µM, LPS 100 ng/mL, RAW264.7. The procedure:
(§2) The Western blot analysis was performed using the reference method with slight modifications. RAW264.7 cells were seeded in 6 cm dishes for 24 h. The cells were treated with sample (12.5, 25, and 50 µM) and LPS (100 ng/mL). After treatment with drugs, cells were washed with cold PBS, and proteins were collected with lysis buffer containing protein inhibitors. After quantification, equal amounts of protein samples were separated using 5–8% SDS-polyacrylamide gels. The proteins were transferred to the membrane by electrophoresis. The membranes were soaked in 2% BSA blocking buffer for 2 h and then washed 2–3 times with TBST. Next, the membranes were visualized with primary antibody (iNOS, TNF-α, and IL-6) and soaked for 1 day. The next day, membranes were washed again with TBST 2–3 times and then soaked with secondary antibody for 2 h. Finally, immuno-reactivity was detected with ECL reagents, exposed with a luminometer photometer, and quantified with Image J.
(In general: Immunoblotting shows a protein as a band on a membrane.)

Assay [8] relates to TNF-α. The assay is described as follows: Western blot analysis of TNF-α. To be noted: 12.5, 25, and 50 µM, LPS 100 ng/mL, RAW264.7. Type of assay: cell-based, Murine. The procedure:
as §2

Assay [9] has as its system IL-6. Put plainly: Western blot analysis of IL-6. Type of assay: cell-based, Murine. Particulars: 12.5, 25, and 50 µM, LPS 100 ng/mL, RAW264.7. The protocol: as §2
Where [10] appears, read: isolated compounds, read-out: AChE IC50 (converted).
The mark [11] stands for this setting: isolated compounds, LPS-induced NO, RAW264.7, read-out: Nitric Oxide IC50.
Where [12] appears, read: solvent extracts, concentration causing 50% free radical scavenging.
[13] abbreviates: RAW264.7, read-out: Nitric Oxide IC50.

T1 sequence (O42275 24-633): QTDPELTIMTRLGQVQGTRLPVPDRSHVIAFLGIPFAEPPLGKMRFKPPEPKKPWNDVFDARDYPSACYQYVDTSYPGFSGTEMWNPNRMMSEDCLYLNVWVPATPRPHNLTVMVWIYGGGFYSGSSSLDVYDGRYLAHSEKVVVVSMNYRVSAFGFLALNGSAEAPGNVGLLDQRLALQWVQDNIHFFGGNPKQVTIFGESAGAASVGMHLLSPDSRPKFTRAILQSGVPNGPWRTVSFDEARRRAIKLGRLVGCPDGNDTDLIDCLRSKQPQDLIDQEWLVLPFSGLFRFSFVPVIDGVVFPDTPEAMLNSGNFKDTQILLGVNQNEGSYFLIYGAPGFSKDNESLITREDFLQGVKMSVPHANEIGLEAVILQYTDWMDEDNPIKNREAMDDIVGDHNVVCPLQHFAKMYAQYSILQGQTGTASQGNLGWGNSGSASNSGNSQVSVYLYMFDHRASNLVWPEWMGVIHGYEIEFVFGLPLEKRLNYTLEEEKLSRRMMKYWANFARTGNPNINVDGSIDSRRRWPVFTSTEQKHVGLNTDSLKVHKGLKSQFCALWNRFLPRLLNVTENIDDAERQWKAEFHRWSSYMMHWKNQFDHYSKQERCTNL

On to `O=Cc1ccc(CO)o1` [5-HMF (1), 5-hydroxymethylfurfural], for which the EC50 in [1], in [2] and in [3] was above 400 µM each time. Besides, the “FRAP (TE)” value in [4] is given as 26.70 ± 0.97 mM/g. For the same molecule, the IC50 in [5] (setting [10]) was 81.5 ± 11.1 µM; in assay [6] (setting [11]), 34.9 ± 8.8 µM.

`Cc1cc(C(C)(C)C)c(O)c(C(C)(C)C)c1` [BHT, Butylated hydroxytoluene, reference compound]: the EC50 in assay [1] was found to be 192 ± 8.94 µM; in assay [2], 100 ± 7.26 µM. The “SC50 DPPH” value in assay [1] (setting [12]) was determined as 35.54 ± 0.64 µg/mL. Moreover, the “SC50 ABTS” value in [2] (setting [12]) stood at 20.57 ± 0.22 µg/mL. Moreover, in assay [4], the “FRAP (TE)” value is reported as 2896.93 ± 21.19 mM/g. The “TE FRAP” value in [4] (solvent extracts, mM Trolox equivalents per gram of fresh extract) is 3005.93 ± 13.10 mM/g.

Turning to `O=C(/C=C/c1ccc(O)c(O)c1)O[C@@H]1C[C@](O)(C(=O)O)C[C@@H](O)[C@H]1O` [Chlorogenic acid, chlorogenic acid, reference compound], the IC50 is 68.2 ± 2.9 µM in [5] (setting [10]) and 65.7 µM in [5] (solvent extracts, read-out: AChE IC50 (converted)).

`O=c1c(O[C@@H]2O[C@H](CO)[C@H](O)[C@H](O)[C@H]2O)c(-c2ccc(O)c(O)c2)oc2cc(O)cc(O)c12` [Hyperoside (4), hyperoside]: the results for the EC50 in assay [1], in assay [2] and in assay [3] were 12.5 ± 4.02 µM, 29.3 ± 0.51 µM and 172 ± 3.8 µM, respectively. Moreover, the “FRAP (TE)” value in assay [4] came out at 3246.93 ± 31.92 mM/g. The IC50 was found to be 121 ± 10.7 µM in assay [5] and 18.9 ± 1.68 µM in assay [6] (setting [13]). Besides, the “inhibition of iNOS production” value in assay [7] is “significantly inhibited iNOS production in a concentration-dependent manner”. In assay [8], the “inhibition of TNF-α production” value is “significantly inhibited the production of TNF-α and IL-6 in a concentration-dependent manner”. In assay [9], the “inhibition of IL-6 production” value was “significantly inhibited the production of TNF-α and IL-6 in a concentration-dependent manner”.

In the case of `O=c1c(O[C@@H]2O[C@H](CO)[C@@H](O)[C@H](O)[C@H]2O)c(-c2ccc(O)c(O)c2)oc2cc(O)cc(O)c12` [Isoquercetin (3), isoquercetin], the EC50 in [1] worked out at 12.6 ± 3.21 µM; in assay [2] it was 22.7 ± 1.17 µM; in assay [3], 180 ± 4.43 µM. Further, the “FRAP (TE)” value in assay [4] is on record as 3898.88 ± 23.23 mM/g. Also, the IC50 in assay [5] came out at 23.1 ± 3.15 µM; in assay [6] (setting [13]) it was 17 ± 1.28 µM. For the same molecule, in assay [7], the “inhibition of iNOS production” value is given as “significantly inhibited iNOS production in a concentration-dependent manner”. Moreover, the “inhibition of TNF-α production” value in assay [8] is “significantly inhibited the production of TNF-α and IL-6 in a concentration-dependent manner”. For the same molecule, the “inhibition of IL-6 production” value in [9] was “significantly inhibited the production of TNF-α and IL-6 in a concentration-dependent manner”.

Turning to `O=c1c(O)c(-c2ccc(O)c(O)c2)oc2cc(O)cc(O)c12` [Quercetin, quercetin, reference compound], the IC50 amounted to 18.3 ± 0.54 µM in assay [6] (setting [11]) and 7.52 ± 0.25 µg/mL in assay [6] (solvent extracts, LPS-induced NO, RAW264.7, read-out: Nitric Oxide IC50).

As to `C[C@@H]1O[C@@H](OC[C@H]2O[C@@H](Oc3c(-c4ccc(O)c(O)c4)oc4cc(O)cc(O)c4c3=O)[C@H](O)[C@@H](O)[C@@H]2O)[C@H](O)[C@H](O)[C@H]1O` [Rutin (5), rutin], the results for the EC50 in [1], in assay [2] and in assay [3] were 5.6 ± 0.34 µM, 15.4 ± 0.25 µM and 175 ± 3.02 µM, respectively. Moreover, in [4], the “FRAP (TE)” value is on record as 2221.33 ± 5.02 mM/g. Besides, the IC50 in assay [5] is 33.1 ± 5.43 µM; in assay [6] (setting [13]), 9.89 ± 1.36 µM. Besides, the “inhibition of iNOS production” value in assay [7] is recorded as “strongest inhibitory effect among all isolated compounds; also recorded: significantly inhibited iNOS production in a concentration-dependent manner”. The “inhibition of TNF-α production” value in assay [8] was “significantly inhibited the production of TNF-α and IL-6 in a concentration-dependent manner”. The “inhibition of IL-6 production” value in assay [9] was “significantly inhibited the production of TNF-α and IL-6 in a concentration-dependent manner”.

Take `COc1cc2ccc(=O)oc2cc1O` [Scopoletin (2), scopoletin]: the EC50 in assay [1] is above 400 µM; in assay [2] it was 91.3 ± 3.36 µM; in assay [3], above 400 µM. Besides, the “FRAP (TE)” value in [4] is reported as 2892.97 ± 19.18 mM/g. The IC50 in assay [5] turned out to be 32.4 ± 2.05 µM; in assay [6] (setting [11]), 36.3 ± 4.65 µM.

As usually defined, the IC50 is the point on the concentration scale where inhibition reaches its midpoint.
